ChEMBL document CHEMBL1157881, “Optimization of arylindenopyrimidines as potent adenosine A(2A)/A(1) antagonists” (Bioorg Med Chem Lett, 2010)
The source made the active and inactive calls. The calls are words filed in the database; no cut-off is given here.

Experiments:
Adenosine receptor A2a = Adenosine receptor A2a (Homo sapiens, UniProt P29274); assay: Antagonistic activity at adenosine A2A receptor; type: functional
Adenosine receptor A1 = target: T1, Adenosine receptor A1 (Homo sapiens, UniProt P30542); assay: Antagonistic activity at adenosine A1 receptor; type: functional
T1 sequence (P30542 whole entry): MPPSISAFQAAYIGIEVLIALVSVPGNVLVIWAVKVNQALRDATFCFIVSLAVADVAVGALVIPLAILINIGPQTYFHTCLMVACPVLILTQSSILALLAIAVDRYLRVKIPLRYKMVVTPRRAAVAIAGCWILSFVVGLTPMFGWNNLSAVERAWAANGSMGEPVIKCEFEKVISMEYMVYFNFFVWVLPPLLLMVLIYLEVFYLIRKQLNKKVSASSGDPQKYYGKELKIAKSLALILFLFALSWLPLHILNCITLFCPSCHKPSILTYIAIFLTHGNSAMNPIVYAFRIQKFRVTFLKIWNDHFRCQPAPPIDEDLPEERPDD

Mus musculus [1] = assay: Antagonist activity against haloperidol-induced catalepsy in po dosed mouse; type: functional
Mus musculus [2] = assay: Antagonist activity against haloperidol-induced catalepsy in mouse at 3 mg/kg, po; type: functional, organism-based; parameters: dose 3 mg/kg
[3] = Cmax in rat brain; type: ADME, organism-based
Mus musculus [4] = assay: Antagonist activity against haloperidol-induced catalepsy in mouse at 10 mg/kg, po; type: functional, organism-based; parameters: dose 10 mg/kg

Chain of Adenosine receptor A2a (P29274 whole entry): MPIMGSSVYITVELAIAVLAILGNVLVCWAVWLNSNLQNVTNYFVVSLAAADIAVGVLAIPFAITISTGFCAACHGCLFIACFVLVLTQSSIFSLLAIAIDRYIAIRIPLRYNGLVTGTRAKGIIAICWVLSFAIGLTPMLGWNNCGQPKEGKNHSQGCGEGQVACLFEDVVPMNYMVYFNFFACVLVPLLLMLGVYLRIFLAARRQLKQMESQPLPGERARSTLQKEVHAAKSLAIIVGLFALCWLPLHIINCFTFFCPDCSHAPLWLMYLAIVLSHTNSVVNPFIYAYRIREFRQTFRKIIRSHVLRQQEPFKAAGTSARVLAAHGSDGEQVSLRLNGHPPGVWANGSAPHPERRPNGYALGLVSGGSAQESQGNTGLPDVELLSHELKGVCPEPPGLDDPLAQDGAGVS

| Ki (Adenosine receptor A2a) | Ki (Adenosine receptor A1) | Cmax [3] | SMILES | ED50 (Mus musculus [1]) | Activity (Mus musculus [2]) | Activity (Mus musculus [4]) |
| --- | --- | --- | --- | --- | --- | --- |
| 7.9 nM | 103 nM | – | CCN(CC)CCOc1ccc2c(c1)-c1nc(N)nc(-c3ccccc3)c1C2=O | < 1 mg/kg | – | – |
| 35.3 nM | 194 nM | – | Nc1nc(-c2ccccc2)c2c(n1)-c1cc(OCCN3CCCCC3)ccc1C2=O | – | – | – |
| 4.7 nM | 57.3 nM | – | CN(C)CCN(C)c1ccc2c(c1)-c1nc(N)nc(-c3ccccc3)c1C2=O | – | – | – |
| 12.4 nM | 208 nM | – | CN(C)CCN(C)C(=O)c1ccc2c(c1)-c1nc(N)nc(-c3ccccc3)c1C2=O | < 1 mg/kg | – | – |
| 13.5 nM | 45.2 nM | – | CCN(CC)CCNC(=O)c1ccc2c(c1)-c1nc(N)nc(-c3ccccc3)c1C2=O | – | – | – |
| 50.6 nM | 414 nM | – | CCN(CC)CCOc1ccc2c(c1)-c1nc(N)nc(-c3ccc(F)cc3)c1C2=O | – | – | – |
| 12.5 nM | 142 nM | – | CCN1CCC(Nc2ccc3c(c2)-c2nc(N)nc(-c4ccccc4)c2C3=O)CC1 | – | inactive | – |
| 7.8 nM | 94.7 nM | – | CCN(CC)CCN(C)C(=O)c1ccc2c(c1)-c1nc(N)nc(-c3ccccc3)c1C2=O | < 1 mg/kg | – | – |
| 0.9 nM | 15.4 nM | – | Nc1nc(-c2ccccc2)c2c(n1)-c1cc(NCCc3ccccn3)ccc1C2=O | – | – | – |
| 0.9 nM | 12.7 nM | – | Nc1nc(-c2ccccc2)c2c(n1)-c1cc(NCCc3ccncc3)ccc1C2=O | – | – | – |
| 13.7 nM | 187 nM | – | CC(C)N(CCOc1ccc2c(c1)-c1nc(N)nc(-c3ccccc3)c1C2=O)C(C)C | < 1 mg/kg | – | – |
| 14.9 nM | 67.4 nM | – | CCN1CCN(C(=O)c2ccc3c(c2)-c2nc(N)nc(-c4ccccc4)c2C3=O)CC1 | < 1 mg/kg | – | – |
| 18.6 nM | 258 nM | – | CN1CCC(N(C)C(=O)c2ccc3c(c2)-c2nc(N)nc(-c4ccccc4)c2C3=O)CC1 | < 1 mg/kg | – | – |
| – | 48.2 nM | 4.1 µM | Nc1nc(-c2ccccc2)c2c(n1)-c1cc(OCCN3CCOCC3)ccc1C2=O | < 1 mg/kg | – | – |
| 17.3 nM | 33.3 nM | – | CN(C)CCOc1ccc2c(c1)-c1nc(N)nc(-c3ccccc3)c1C2=O | < 3 mg/kg | – | – |
| 32.5 nM | 12.3 nM | – | Nc1nc(-c2ccccc2)c2c(n1)-c1cc(C(=O)N3CCNCC3)ccc1C2=O | – | – | – |
| 11.4 nM | 256 nM | – | CCN1CCN(c2ccc3c(c2)-c2nc(N)nc(-c4ccccc4)c2C3=O)CC1 | < 1 mg/kg | – | – |
| – | – | 0.6 µM | CN1CCN(C(=O)c2ccc3c(c2)-c2nc(N)nc(-c4ccccc4)c2C3=O)CC1 | 0.4 mg/kg | – | – |
| 20.7 nM | 84.1 nM | – | CC(C)N1CCN(C(=O)c2ccc3c(c2)-c2nc(N)nc(-c4ccccc4)c2C3=O)CC1 | – | – | – |
| – | – | 3.6 µM | Nc1nc(-c2ccccc2)c2c(n1)-c1cc(CN3CCCC3)ccc1C2=O | – | – | – |

The remaining lines, values behind:

| SMILES | Ki (Adenosine receptor A2a) | Ki (Adenosine receptor A1) | Cmax [3] | ED50 (Mus musculus [1]) | Activity (Mus musculus [2]) | Activity (Mus musculus [4]) |
| --- | --- | --- | --- | --- | --- | --- |
| Nc1nc(-c2ccccc2)c2c(n1)-c1cc(N3CCN(CC4CC4)CC3)ccc1C2=O | 23.2 nM | 253 nM | – | – | – | – |
| CCN1CCC(N(C)c2ccc3c(c2)-c2nc(N)nc(-c4ccccc4)c2C3=O)CC1 | 4.9 nM | 16.4 nM | – | – | – | – |
| CN(C)CCOc1ccc2c(c1)-c1nc(N)nc(-c3ccc(F)cc3)c1C2=O | 37.3 nM | 37.4 nM | – | – | – | – |
| CC(C)N1CCC(NC(=O)c2ccc3c(c2)-c2nc(N)nc(-c4ccccc4)c2C3=O)CC1 | 16.8 nM | 119 nM | – | 0.4 mg/kg | – | – |
| CN1CCN(c2ccc3c(c2)-c2nc(N)nc(-c4ccccc4)c2C3=O)CC1 | 2.7 nM | 35.6 nM | – | < 1 mg/kg | – | – |
| Nc1nc(-c2ccc(F)cc2)c2c(n1)-c1cc(OCCN3CCOCC3)ccc1C2=O | 18.1 nM | 203 nM | – | < 1 mg/kg | – | – |
| CN1CCN(C(=O)c2ccc3c(c2)-c2nc(N)nc(-c4ccc(F)cc4)c2C3=O)CC1 | 11.1 nM | 101 nM | – | < 1 mg/kg | – | – |
| Nc1nc(-c2ccccc2)c2c(n1)-c1cc(C(=O)NCCN3CCOCC3)ccc1C2=O | 28.4 nM | 215 nM | – | – | – | – |
| CCN1CCN(C(=O)c2ccc3c(c2)-c2nc(N)nc(-c4ccc(F)cc4)c2C3=O)CC1 | 32.1 nM | 191 nM | – | – | – | – |
| CC(C)N(CCOc1ccc2c(c1)-c1nc(N)nc(-c3ccc(F)cc3)c1C2=O)C(C)C | 76.6 nM | 468 nM | – | – | – | – |
| Nc1nc(-c2ccccc2)c2c(n1)-c1cc(NCCN3CCOCC3)ccc1C2=O | 4.4 nM | 32.7 nM | – | < 1 mg/kg | – | – |
| Nc1nc(-c2ccccc2)c2c(n1)-c1cc(NCCN3CCS(=O)(=O)CC3)ccc1C2=O | 3.1 nM | 46.7 nM | – | – | inactive | – |
| Nc1nc(-c2ccccc2)c2c(n1)-c1cc(N3CCOCC3)ccc1C2=O | 2.9 nM | 32.4 nM | – | – | – | – |
| Nc1nc(-c2ccc(F)cc2)c2c(n1)-c1cc(OCCN3CCCC3)ccc1C2=O | 117 nM | 600 nM | – | 0.8 mg/kg | – | – |
| Nc1nc(-c2ccccc2)c2c(n1)-c1cc(OCCN3CCCC3)ccc1C2=O | 19.3 nM | 159 nM | – | < 1 mg/kg | – | – |
| Nc1nc(-c2ccc(F)cc2)c2c(n1)-c1cc(OCCN3C4CCC3CC4)ccc1C2=O | 35.1 nM | 337 nM | – | – | – | inactive |
| CN1CCCN(c2ccc3c(c2)-c2nc(N)nc(-c4ccccc4)c2C3=O)CC1 | 10 nM | 137 nM | – | – | – | – |
